Assay [1] has as its system guinea pig tracheal smooth muscle. The assay is described as follows: Tracheal relaxant activity of VIP analogs on isolated guinea pig tracheal rings. To be noted: cumulative concentration response, relaxation as % of maximum response to VIP (10^-6 M=100%), three tissues pooled, linear regression. The format is cell-based. A digest of the protocol: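 Male guinea pig tracheal rings under 1.5 g resting tension in Krebs at 37° C, 95% O2/5% CO2, isometric tension. Cumulative concentration-response curves; relaxation as % of response to 10^-6 M VIP added at end; three tissues pooled, EC50 by linear regression.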

The next assay relates to guinea pigs. The assay is described as follows: In vivo bronchodilator activity by tracheal instillation against histamine challenge. Set-up: species or system guinea pig. The conditions noted are these: anesthetized male guinea pigs, inhibition of histamine (i.v.)-induced rise in tracheal pressure. A digest of the protocol: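 Urethane-anaesthetised male Hartley guinea pigs (400-600 g) received compound in water by intratracheal instillation, then were paralysed, ventilated and challenged with histamine […] i.v. Tracheal pressure change gave % inhibition (≥3 animals/group); ED50 from log dose-response; duration as time until inhibition fell to 40%.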

Where a SMILES comes first, the peptide text is derived from it. Bridges are numbered along the chain shown (N, C = ends). [ ]: non-standard residue; d: D form. Tyr(3-F) = N[C@@H](Cc1ccc(O)c(F)c1)C(=O)O; Tyr(3-OMe) = COc1cc(C[C@H](N)C(=O)O)ccc1O; Phe(4-NH2) = Nc1ccc(C[C@H](N)C(=O)O)cc1; Nle = CCCC[C@H](N)C(=O)O

In the case of `CCCC[C@H](NC(=O)[C@H](CCC(N)=O)NC(=O)[C@H](CCCCN)NC(=O)[C@H](CCCNC(=N)N)NC(=O)[C@H](CC(C)C)NC(=O)[C@H](CCCCN)NC(=O)[C@@H](NC(=O)[C@H](Cc1ccc(O)cc1)NC(=O)[C@H](CC(N)=O)NC(=O)[C@H](CCC(=O)O)NC(=O)[C@@H](NC(=O)[C@H](Cc1ccccc1)NC(=O)[C@@H](NC(=O)[C@H](C)NC(=O)[C@H](CC(=O)O)NC(=O)[C@H](C)NC(=O)[C@H](Cc1c[nH]cn1)NC(C)=O)C(C)C)[C@@H](C)O)[C@@H](C)O)C(=O)N[C@@H](C)C(=O)N[C@@H](C)C(=O)N[C@@H](CCCCN)C(=O)N[C@H]1CCCCNC(=O)C[C@@H](C(=O)N[C@@H](CC(C)C)C(=O)N[C@@H](CCCCN)C(=O)N[C@@H](CCCCN)C(=O)NCC(=O)NCC(=O)N[C@H](C(N)=O)[C@@H](C)O)NC(=O)[C@H](CC(N)=O)NC(=O)[C@H](CC(C)C)NC(=O)[C@H](Cc2ccc(O)cc2)NC1=O` [SEQ ID NO:51, Ac-[Ala^2,Glu^8,Lys^12,Nle^17,Ala^19,Asp^25,Leu^26,Lys^27,28,Gly^29,30,Thr^31]-VIP cyclo (Lys^21 →Asp^25)] (Ac-HADAVFTENYTKLRKQ[Nle]AAKKYLNDLKKGGT-NH2; lactam 21-25), the EC50 – broadly, the concentration giving half of the maximal effect – in assay [1] worked out at 0.92 nM. For the same compound, the “Bronchodilator activity of VIP analogs in guinea pigs, ED50” value in the assay on guinea pigs is 0.1 μg.
Taken in the same sequence, the figures for `CCCC[C@H](NC(=O)[C@H](CCC(N)=O)NC(=O)[C@H](CCCCN)NC(=O)[C@H](CCCNC(=N)N)NC(=O)[C@H](CC(C)C)NC(=O)[C@H](CCCCN)NC(=O)[C@@H](NC(=O)[C@H](Cc1ccc(O)cc1)NC(=O)[C@H](CC(N)=O)NC(=O)[C@H](CCC(=O)O)NC(=O)[C@@H](NC(=O)[C@H](Cc1ccccc1)NC(=O)[C@@H](NC(=O)[C@H](C)NC(=O)[C@H](CC(=O)O)NC(=O)[C@H](CO)NC(=O)[C@H](Cc1c[nH]cn1)NC(C)=O)C(C)C)[C@@H](C)O)[C@@H](C)O)C(=O)N[C@@H](C)C(=O)N[C@@H](C)C(=O)N[C@@H](CCCCN)C(=O)N[C@H]1CCCCNC(=O)C[C@@H](C(=O)N[C@@H](CC(C)C)C(=O)N[C@@H](CCCCN)C(=O)N[C@@H](CCCCN)C(=O)NCC(=O)NCC(=O)N[C@H](C(N)=O)[C@@H](C)O)NC(=O)[C@H](CC(N)=O)NC(=O)[C@H](CC(C)C)NC(=O)[C@H](Cc2ccc(O)cc2)NC1=O` [SEQ ID NO:52, Ac-[Glu^8,Lys^12,Nle^17,Ala^19,Asp^25,Leu^26,Lys^27,28,Gly^29,30,Thr^31]-VIP cyclo (Lys^21 →Asp^25)] (Ac-HSDAVFTENYTKLRKQ[Nle]AAKKYLNDLKKGGT-NH2; lactam 21-25) were 0.35 nM and 0.1 μg.
For `CCCC[C@H](NC(=O)[C@H](CCC(N)=O)NC(=O)[C@H](CCCCN)NC(=O)[C@H](CCCNC(=N)N)NC(=O)[C@H](CC(C)C)NC(=O)[C@H](CCCCN)NC(=O)[C@@H](NC(=O)[C@H](Cc1ccc(O)cc1)NC(=O)[C@H](CC(N)=O)NC(=O)[C@H](CCC(=O)O)NC(=O)[C@@H](NC(=O)[C@H](Cc1ccccc1)NC(=O)[C@@H](NC(=O)[C@H](C)NC(=O)[C@H](CC(=O)O)NC(=O)[C@H](C)NC(=O)[C@H](Cc1c[nH]cn1)NC(C)=O)C(C)C)[C@@H](C)O)[C@@H](C)O)C(=O)N[C@@H](C)C(=O)N[C@@H](C)C(=O)N[C@@H](CCCCN)C(=O)N[C@H]1CCCCNC(=O)C[C@@H](C(=O)N[C@@H](CC(C)C)C(=O)N[C@@H](CCCCN)C(=O)N[C@@H](CCCCN)C(N)=O)NC(=O)[C@H](CC(N)=O)NC(=O)[C@H](CC(C)C)NC(=O)[C@H](Cc2ccc(O)cc2)NC1=O` [SEQ ID NO:53, Ac-[Ala^2,Glu^8,Lys^12,Nle^17,Ala^19,Asp^25,Leu^26,Lys^27,28]-VIP cyclo (Lys^21 →Asp^25)] (Ac-HADAVFTENYTKLRKQ[Nle]AAKKYLNDLKK-NH2; lactam 21-25) the same measures were 0.78 nM and 0.14 μg.
Taken in the same sequence, the figures for `CCCC[C@H](NC(=O)[C@H](CCC(N)=O)NC(=O)[C@H](CCCCN)NC(=O)[C@H](CCCNC(=N)N)NC(=O)[C@H](CC(C)C)NC(=O)[C@H](CCCCN)NC(=O)[C@@H](NC(=O)[C@H](Cc1ccc(N)cc1)NC(=O)[C@H](CC(N)=O)NC(=O)[C@H](CC(=O)O)NC(=O)[C@@H](NC(=O)[C@H](Cc1ccccc1)NC(=O)[C@@H](NC(=O)[C@H](C)NC(=O)[C@H](CC(=O)O)NC(=O)[C@H](CO)NC(=O)[C@H](Cc1c[nH]cn1)NC(C)=O)C(C)C)[C@@H](C)O)[C@@H](C)O)C(=O)N[C@@H](C)C(=O)N[C@@H](C)C(=O)N[C@@H](CCCCN)C(=O)N[C@H]1CCCCNC(=O)C[C@@H](C(=O)N[C@H](C(=O)N[C@@H](CC(C)C)C(=O)N[C@H](C(N)=O)[C@@H](C)O)C(C)C)NC(=O)[C@H](CC(N)=O)NC(=O)[C@H](CC(C)C)NC(=O)[C@H](Cc2ccc(O)cc2)NC1=O` [SEQ ID NO:54, Ac-[p-NH2 -Phe^10,Lys^12,Nle^17,Ala^19,Asp^25,Val^26,Thr^28]-VIP cyclo (Lys^21 →Asp^25)] (Ac-HSDAVFTDN[Phe(4-NH2)]TKLRKQ[Nle]AAKKYLNDVLT-NH2; lactam 21-25) were 0.96 nM and 0.35 μg.
Compound `CCCC[C@H](NC(=O)[C@H](CCC(N)=O)NC(=O)[C@H](CCCCN)NC(=O)[C@H](CCCNC(=N)N)NC(=O)[C@H](CC(C)C)NC(=O)[C@H](CCCCN)NC(=O)[C@@H](NC(=O)[C@H](Cc1ccc(O)cc1)NC(=O)[C@H](CC(N)=O)NC(=O)[C@H](CC(=O)O)NC(=O)[C@@H](NC(=O)[C@H](Cc1ccccc1)NC(=O)[C@@H](NC(=O)[C@H](C)NC(=O)[C@H](CC(=O)O)NC(=O)[C@H](CO)NC(=O)[C@H](Cc1c[nH]cn1)NC(C)=O)C(C)C)[C@@H](C)O)[C@@H](C)O)C(=O)N[C@@H](C)C(=O)N[C@@H](C)C(=O)N[C@@H](CCCCN)C(=O)N[C@H]1CCCCNC(=O)C[C@@H](C(=O)N[C@H](C(=O)N[C@@H](CC(C)C)C(=O)N[C@H](C(N)=O)[C@@H](C)O)C(C)C)NC(=O)[C@H](CC(N)=O)NC(=O)[C@H](CC(C)C)NC(=O)[C@H](Cc2ccc(O)c(OC)c2)NC1=O` [SEQ ID NO:55, Ac-[Lys^12,Nle^17,Ala^19,m-OCH3 -Tyr^22,Asp^25,Val^26,Thr^28]-VIP cyclo (Lys^21 →Asp^25)] (Ac-HSDAVFTDNYTKLRKQ[Nle]AAKK[Tyr(3-OMe)]LNDVLT-NH2; lactam 21-25) came in with an EC50 in assay [1] of 0.31 nM. In the assay with guinea pigs, the “Bronchodilator activity of VIP analogs in guinea pigs, ED50” value was found to be 0.14 μg.
Taken in the same sequence, the figures for `CCCC[C@H](NC(=O)[C@H](CCC(N)=O)NC(=O)[C@H](CCCCN)NC(=O)[C@H](CCCNC(=N)N)NC(=O)[C@H](CC(C)C)NC(=O)[C@H](CCCCN)NC(=O)[C@@H](NC(=O)[C@H](Cc1ccc(O)cc1)NC(=O)[C@H](CC(N)=O)NC(=O)[C@H](CC(=O)O)NC(=O)[C@@H](NC(=O)[C@H](Cc1ccccc1)NC(=O)[C@@H](NC(=O)[C@H](C)NC(=O)[C@H](CC(=O)O)NC(=O)[C@H](CO)NC(=O)[C@H](Cc1c[nH]cn1)NC(C)=O)C(C)C)[C@@H](C)O)[C@@H](C)O)C(=O)N[C@@H](C)C(=O)N[C@@H](C)C(=O)N[C@@H](CCCCN)C(=O)N[C@H]1CCCCNC(=O)C[C@@H](C(=O)N[C@H](C(=O)N[C@@H](CC(C)C)C(=O)N[C@H](C(N)=O)[C@@H](C)O)C(C)C)NC(=O)[C@H](CC(N)=O)NC(=O)[C@H](CC(C)C)NC(=O)[C@H](Cc2ccc(O)c(F)c2)NC1=O` [SEQ ID NO:56, Ac-[Lys^12,Nle^17,Ala^19,m-F-L-Tyr^22,Asp^25,Val^26,Thr^28]-VIP cyclo (Lys^21 →Asp^25)] (Ac-HSDAVFTDNYTKLRKQ[Nle]AAKK[Tyr(3-F)]LNDVLT-NH2; lactam 21-25) were 0.52 nM and 7.2 μg.

For the origin of these results see patent US5677419A, “Cyclic vasoactive peptide analogs” (Hoffmann-La Roche Inc., priority 1994, dated 1997).
